Source: patent US4473583A, “Compositions containing certain derivatives of 4-phenyl-4-oxobuten-2-oic acid and methods of treatment using them” (Roussel UCLAF, priority 1981, dated 1984)

Experiments:
[1] = acute toxicity (LD50); details: mouse, in vivo; mice, oral
Method: (3) Determination of the Acute Toxicity
The LD50 was evaluated after the administration of the products orally to mice.

[2] = system: total acidity of the gastric secretions; assay: anti-gastric secretion activity (pylorus ligation, Shay technique); format: in vivo; details: male rats, pylorus ligated, 10 mg/kg intraduodenally, 3 hours
Method: (1) Determination of the anti-gastric secretion activity
The technique used is described by H. SHAY et al. in Gastroenterology 5, 43, 1945.
Male rats were used having a weight of about 200 g (10 animals per lot), and were kept without food for 48 hours but allowed a 8% gluclose solution ad libitum. After the rats were slightly anesthetized with ether, the pylorus of each was ligated. After the end of the operation, the product to be tested in different doses or, in the case of the control animals a solution of 0.5% carboxymethyl cellulose, was administered intraduodenally, after which the abdominal incision sutured.
Three hours later, the animals were sacrified and their stomachs removed after ligating the esophagus. The gastric juice was removed and centrifuged. The volume of gastric juice obtained was then determined and the total acidity of the gastric juice was obtained by titrating a 100 μl sample of gastric juice to a pH of 7 by means of 1/10 N sodium hydroxide solution.
The percentages of the variation of the total acidity of the gastric secretions, between test animals and control animals were calculated and are set forth in the table appearing below.

[3] = system: stomach ulcers; assay: anti-ulcer activity, stress ulcer (stress and cold); format: in vivo; details: female rats, stress and cold (8° C., two hours), 10 mg/kg through an esophageal tube, 2 hours before stress
Method: (2) Determination of the anti-ulcer activity Stress Ulcer
The technique consists of inducing stomach ulcers by stress in rats (stress and cold). The technique used is described by E. C. SENAY and R. J. LEVINE, Proc. Soc. Exp. Biol. 124, 1221 (1967).
Female rats of 150 g (5 animals per lot) were used which has been fasting for 48 hours with water ad libitum and glucose solution for 8 hours. Through an esophageal tube, the animals received a test compound, or a solution of 0.5% carboxy methyl cellulose in the case of the control animals. Two hours later, the animals were bundled in a jacket of netting. Their paws were bound and the entire unit was placed in a refrigerator at 8° C. for two hours. The rats were freed and killed by ether.
Their stomachs were removed, opened along the greater curvature and examined with a binocular magnifier. The seriousness of the lesions was graded from 1 to 3 for each stomach.
For each lot of rats, the average intensity of the ulcerations was calculated. The degree of ulceration for test animals was compared with the control animals for each lot.

## O=C(O)/C=C/C(=O)c1ccccc1 [Example 1, (E) 4-phenyl-4-oxobuten-2-oic acid]
[1]
  LD50: 250 mg/kg
[2]
  Anti-secretion activity: Acid Concentration (% variation as compared with the controls): -66%
[3]
  Anti-ulcer activity: Ulceration (% variation as compared with the controls): -54%

## O=C(O)/C=C\C(=O)c1ccccc1 [Example 3, (Z) 4-phenyl-4-oxobuten-2-oic acid]
[1]
  LD50: 370 mg/kg
[2]
  Anti-secretion activity: Acid Concentration (% variation as compared with the controls): -81%
[3]
  Anti-ulcer activity: Ulceration (% variation as compared with the controls): -93%

## Cc1ccc(C(=O)C=CC(=O)O)cc1 [Example 2, 4-tolyl-4-oxobuten-2-oic acid]
[1]
  LD50: 250 mg/kg
[2]
  Anti-secretion activity: Acid Concentration (% variation as compared with the controls): -61%
[3]
  Anti-ulcer activity: Ulceration (% variation as compared with the controls): -39%
